Results on one molecule are retold here after patent US20250367171A1, “THERAPEUTIC OR PROPHYLACTIC AGENT FOR PERIPHERAL NEUROPATHIES” (Toray Industries, Inc., priority 2017, published 2025).

Test [1] deals with fetal rat dorsal root ganglion-derived established neuronal cell line ND15. The test is described as follows: Protective effect on cisplatin-induced cell damage (alamarBlue cell viability), simultaneous treatment. Format: cell-based. The conditions noted are these: ND15 cells, cisplatin 50 μM 4 hours, simultaneous treatment with compound 1 at 0.5, 5 or 50 μM. How it is done: A fetal rat dorsal root ganglion-derived established neuronal cell line ND15 was cultured in 10% FBS-containing DMEM. On the next day, the cells were cultured in 10% FBS-containing DMEM containing EC23 (10 μM, Reinner) for 8 days, for differentiation into neurons.
The medium was exchanged with DMEM/F12 medium containing cisplatin (final concentration of 50 μM) followed by 4 hours of culture, thereby inducing cell injury. Compound 1 was contained in the medium (final concentration of 0.5, 5 or 50 μM) for treatment, in a manner similar to that for cisplatin. Groups were composed of 6 groups: an untreated group, a 50 μM compound 1 treatment group (the group treated with 50 μM compound 1), a cisplatin treatment group, a cisplatin and 0.5 μM compound 1 treatment group (the group treated with cisplatin and 0.5 μM compound 1), a cisplatin and 5 μM compound 1 treatment group, and a cisplatin and 50 μM compound 1 treatment group.
For measurement of cell viability, the medium was exchanged with DMEM/F12 medium containing alamarBlue (Invitrogen), followed by 2 hours of culture, and then the absorbance at wavelength of 570 nm and the absorbance at wavelength of 595 nm were measured. Cell viability was calculated using the ratio of the absorbance at wavelength of 570 nm to the absorbance at wavelength of 595 nm and the untreated group designated as 100%.
On the technique in general: Resazurin is reduced to fluorescent resorufin, in cell work by metabolically active cells.

Test [2] has as its system co-culture of rat dorsal root ganglion neurons and Schwann cells. The test is described as follows: Myelination in co-culture, MBP immunostaining, number of myelin sheath segments. The following applies: 30 μM with ascorbic acid treatment, vs vehicle treatment group. Format: cell-based. Here is the method:
The dorsal root ganglion was excised from a fetus of a female SD rat at 15 days of pregnancy, and then neurons and Schwann precursor cells thereof were separately cultured (the initial day of cell culture was designated as Day 1). On day 19 from the initial day of cell culture (Day19), Schwann precursor cells were added to the culture of neurons to initiate co-culture. Myelination was induced by treatment with ascorbic acid (a total of 4 to 5 times in accordance with 2 to 3 times of medium exchange) on the 26th to 40th days (Days 26 to 40) from the initial day of cell culture.
In combination with ascorbic acid treatment, treatment with compound 1 dissolved in sterile distilled water (final concentration of 30 μM) was performed 4 to 5 times in total. As a control, treatment with sterile distilled water instead of the compound 1 solution was performed. Groups were composed of 2 groups: a sterile distilled water treatment group (Vehicle treatment group); and a 30 μM compound 1 treatment group (compound 1 treatment group). […]
Fluorescent images of MBP were taken with a fluorescence microscope (DMI4000B, Leica), and then the number of myelin sheath segments (≥25 μm) was analyzed based on the images. […]

In test [3] the test system is myelin basic protein (MBP) in co-culture of rat dorsal root ganglion neurons and Schwann cells. The test is described as follows: Expression level of MBP in co-culture, Western blotting. Format: cell-based. The conditions noted are these: 30 μM, day 43 of culture, vs vehicle treatment group. How it is done: In a manner similar to Example 3, co-culture of rat dorsal root ganglion neurons and Schwann cells was prepared, myelination was induced, and then treatment with compound 1 was performed. Groups were composed of 2 groups: a sterile distilled water treatment group (Vehicle treatment group); and a 30 μM compound 1 treatment group (compound 1 treatment group).
For Western blotting, on day 43 from the initial day of cell culture, the co-culture was lysed in a RIPA cell lysis solution, and then the cell lysate was subjected to sodium dodecyl sulfate-polyacrylamide gel electrophoresis. Subsequently, the protein was transferred to a PVDF membrane, and then an MBP band was detected by antibody reaction. Image Lab software (BIO-RAD) was used for quantifying the thus detected band.
In general terms: A western blot detects proteins with antibodies after separation by electrophoresis.

The test system of test [4] is rat bortezomib-induced peripheral neuropathy model. The test is described as follows: Mechanical allodynia (von Frey test) in rat bortezomib-induced peripheral neuropathy model. Format: in vivo. The following applies: 20 mg/kg oral single dose, day 15, 3 hours after administration, vs vehicle group. How it is done: Bortezomib (0.2 mg/kg, AdooQ BioScience) was intraperitoneally administered 4 times in total to SD rats (6 weeks old, male; CHARLES RIVER LABORATORIES JAPAN, INC.) on days 1, 4, 8 and 11 after induction of pathological conditions, thereby preparing a bortezomib-induced peripheral neuropathy model. Here, the initial day of administration was designated as the 1st day (Day1) after induction of pathological conditions. Bortezomib was dissolved in dimethyl sulfoxide, and then Tween80 was added. Subsequently, water for injection was added to prepare a 0.2 mg/mL solution. The final concentration of dimethyl sulfoxide and that of Tween80 were each 5%.
On day 15 after induction of pathological conditions, a solution containing compound 1 (20 mg/kg) or a solvent thereof (water for injection) was orally administered to rats. Groups were composed of 2 groups: a solvent administration group (vehicle group) and a compound 1 (20 mg/kg) administration group.
Beneficial effects on mechanical allodynia were evaluated in a manner similar to Example 5, and this evaluation was performed before and on day 15 after induction of pathological conditions (3 hours after administration of compound 1).

Test [5] relates to rat experimental autoimmune neuritis (EAN) model. The test is described as follows: Mechanical allodynia (von Frey test) in rat EAN model. Format: in vivo. The following applies: day 14, 3 hours after administration, vs vehicle group. How it is done:
EAN model rats were prepared in a manner similar to Example 9. Further, a pseudo-induction animal was prepared by administering physiological saline (Otsuka Pharmaceutical Factory, Inc.) instead of a peptide solution for administration. The day of administration of the peptide solution for administration or physiological saline was designated as day 0 after induction of pathological conditions.
On day 14 after induction of pathological conditions, compound 1 (5 or 10 mg/kg) or a solvent thereof (water for injection) was orally administered to rats. Groups were composed of 4 groups: a pseudo-induction and solvent administration group (sham group); a pathological condition-induced and solvent administration group (vehicle group); a pathological condition-induced and compound 1 (5 mg/kg) administration group (compound 1 (5 mg/kg) group); and a pathological condition-induced and compound 1 (10 mg/kg) administration group (compound 1 (10 mg/kg) administration group).
Beneficial effects on mechanical allodynia were evaluated in a manner similar to Example 5, and this evaluation was performed at 3 hours after administration of compound 1 on day 14 after induction of pathological conditions.

Regarding `CN(C)C1CCN(C(=O)C[C@H](O)c2nccn2C)CC1` [Compound 1, (S)-1-(4-(dimethylamino)piperidin-1-yl)-3-hydroxy-3-(1-methyl-1H-imidazol-2-yl)propan-1-one], in test [1], the “cell viability (decrease caused by cisplatin)” value is “suppressed decrease”. Moreover, the “number of myelin sheath segments” value in test [2] is listed as “Increased number of myelin sheath segments”. In addition, in test [3], the “myelin sheath marker protein MBP expression level” value is listed as “increases in the myelin sheath marker protein, MBP”. The figures for the “50% response threshold in von Frey test (mechanical allodynia)” value in test [4], in test [5] (5 mg/kg oral single dose) and in test [5] (10 mg/kg oral single dose) were “significant increase in 50% response threshold”, “Significant increases in 50% response threshold” and “Significant increases in 50% response threshold”, respectively.
